Experimental data taken from patent US7153849B2, “Antidepressant arylpiperazine derivatives of hetrocycle-fused benzodioxans” (Wyeth, priority 2002, dated 2006).

What was measured:
[1] = target: T1, cloned human 5HT1A receptors (Homo sapiens, UniProt P08908); test: 35S-GTPγS binding assay, 5HT1A antagonist activity; format: biochemical; conditions: for 5HT1A Function Imax: maximum inhibitory effect, vs 8-OH-DPAT, unit assumed; for IC50: reversal of 8-OH-DPAT (antagonist), read-out: 5HT1A Function IC50
T1 construct: expressed in transfected cells
T1 sequence (P08908 1-422): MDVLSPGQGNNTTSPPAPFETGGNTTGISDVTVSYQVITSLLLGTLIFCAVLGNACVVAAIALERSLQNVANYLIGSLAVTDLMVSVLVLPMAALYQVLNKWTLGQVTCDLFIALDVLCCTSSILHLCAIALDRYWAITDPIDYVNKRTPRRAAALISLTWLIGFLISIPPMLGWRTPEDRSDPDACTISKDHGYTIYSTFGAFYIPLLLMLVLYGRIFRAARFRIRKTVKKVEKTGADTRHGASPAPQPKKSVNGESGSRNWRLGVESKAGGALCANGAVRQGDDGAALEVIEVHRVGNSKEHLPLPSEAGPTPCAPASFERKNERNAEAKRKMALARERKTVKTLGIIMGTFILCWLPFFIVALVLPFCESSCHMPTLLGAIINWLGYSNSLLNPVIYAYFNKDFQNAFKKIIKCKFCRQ
Method: Antagonist activity at 5HT1A receptors was established by using a ^35S-GTPγS binding assay similar to that used by Lazareno and Birdsall (Br. J. Pharmacol. 109:1120, 1993), in which the test compound's ability to affect the binding of ^35S-GTPγS to membranes containing cloned human 5HT1A receptors was determined. Agonists produce an increase in binding whereas antagonists produce no increase but rather reverse the effects of the standard agonist 8-OH-DPAT. The test compound's maximum inhibitory effect is represented as the Imax, while its potency is defined by the IC50.

serotonin transporter = target: T2, serotonin transporter (Rattus norvegicus, UniProt P31652); test: 3H-paroxetine displacement from rat frontal cortical membranes (serotonin transporter affinity); format: binding; conditions: 3H-paroxetine, male rat frontal cortical membranes; for Ki: read-out: 5-HT Transporter Affinity Ki
T2 construct: displace ^3H-paroxetine from male rat frontal cortical membranes; from tissue; host or cells: male rat frontal cortical membranes
T2 sequence (P31652 whole entry): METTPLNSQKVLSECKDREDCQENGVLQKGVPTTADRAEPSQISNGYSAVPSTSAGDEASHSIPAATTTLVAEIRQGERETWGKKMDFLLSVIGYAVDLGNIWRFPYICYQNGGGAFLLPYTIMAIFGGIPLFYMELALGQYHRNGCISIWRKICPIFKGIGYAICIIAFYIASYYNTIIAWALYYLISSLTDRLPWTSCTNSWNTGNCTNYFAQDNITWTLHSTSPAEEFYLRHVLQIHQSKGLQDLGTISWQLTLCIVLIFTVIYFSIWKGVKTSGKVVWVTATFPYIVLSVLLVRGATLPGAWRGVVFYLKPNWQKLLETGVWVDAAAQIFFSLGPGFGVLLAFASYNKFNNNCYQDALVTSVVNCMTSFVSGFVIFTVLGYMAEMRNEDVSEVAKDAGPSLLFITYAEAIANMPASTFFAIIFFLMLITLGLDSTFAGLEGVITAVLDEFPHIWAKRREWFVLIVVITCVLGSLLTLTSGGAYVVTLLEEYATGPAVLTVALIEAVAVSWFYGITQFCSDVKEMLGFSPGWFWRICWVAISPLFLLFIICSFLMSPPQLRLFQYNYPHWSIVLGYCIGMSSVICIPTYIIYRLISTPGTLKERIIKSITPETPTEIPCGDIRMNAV

human 5HT1A receptors = target: T3, human 5HT1A receptors (Homo sapiens, UniProt P08908); test: [3H] 8-OH-DPAT displacement from 5HT1A receptor in stably transfected CHO cells; format: binding; conditions: CHO cells with human 5HT1A; for Ki: read-out: 5HT1A Receptor Affinity Ki
T3 construct: expressed in transfected cells; host or cells: CHO cells
T3 sequence (P08908 1-422): T1 sequence (P08908 1-422)
Text: High affinity for the serotonin 5HT1A receptor was established by testing the claimed compound's ability to displace [^3H] 8-OH-DPAT (dipropylamino-tetralin) from the 5HT1A serotonin receptor following a modification of the procedure of Hall et al., J. Neurochem. 44, 1685 (1985) which utilizes CHO cells stably transfected with human 5HT1A receptors.

SMILES: COc1ccccc1N1CCN(C[C@H]2COc3ccc4nc(C)ccc4c3O2)CC1 [Example 4, (2S)-2-{[4-(2-methoxyphenyl)piperazin-1-yl]methyl}-8-methyl-2,3-dihydro[1,4]dioxino[2,3-f]quinoline]
- 5HT1A Function Imax [1]: 87%
- IC50 [1]: 0.994 µM
- 5-HT Transporter Affinity, % @ 1 μM (serotonin transporter): 34% @ 1 μM
- melting point: 44 to 47 °C
- 5HT1A Receptor Affinity, % @ 1 μM (human 5HT1A receptors): 95% @ 1 μM

SMILES: COc1cccc(N2CCN(C[C@H]3COc4ccc5nc(C)ccc5c4O3)CC2)c1 [Example 5, (2S)-2-{[4-(3-methoxyphenyl)piperazin-1-yl]methyl}-8-methyl-2,3-dihydro[1,4]dioxino[2,3-f]quinoline]
- 5HT1A Function Imax [1]: 84%
- IC50 [1]: 1.72 µM
- Ki (serotonin transporter): 0.0355 µM
- melting point: 90 to 91 °C
- 5HT1A Receptor Affinity, % @ 1 μM (human 5HT1A receptors): 80% @ 1 μM

SMILES: COc1ccc(N2CCN(C[C@H]3COc4ccc5nc(C)ccc5c4O3)CC2)cc1 [Example 6, (2S)-2-{[4-(4-methoxyphenyl)piperazin-1-yl]methyl}-8-methyl-2,3-dihydro[1,4]dioxino[2,3-f]quinoline]
- 5HT1A Function Imax [1]: 37%
- IC50 [1]: 3.94 µM
- 5-HT Transporter Affinity, % @ 1 μM (serotonin transporter): 0% @ 1 μM
- melting point: 164 to 165 °C
- 5HT1A Receptor Affinity, % @ 1 μM (human 5HT1A receptors): 81% A1 μM

SMILES: Cc1ccc2c3c(ccc2n1)OC[C@H](CN1CCN(c2cccc(C(F)(F)F)c2)CC1)O3 [Example 8, (2S)-8-methyl-2-[4-(3-trifluoromethyl-phenyl)piperazin-1-ylmethyl]-2,3-dihydro[1,4]dioxine[2,3-f]quinoline]
- 5HT1A Function Imax [1]: 100%
- IC50 [1]: 3.11 µM
- Ki (serotonin transporter): 0.0216 µM
- melting point: 123 to 124 °C
- Ki (human 5HT1A receptors): 0.0314 µM

SMILES: Cc1ccc2c3c(ccc2n1)OC[C@H](CN1CCN(c2cccc(C)c2C)CC1)O3 [Example 10, (2S)-2-{[4-(2,3-dimethylphenyl)piperazin-1-yl]methyl}-8-methyl-2,3-dihydro[1,4]dioxino[2,3-f]quinoline]
- 5HT1A Function Imax [1]: 98%
- IC50 [1]: 0.403 µM
- Ki (serotonin transporter): 0.0885 µM
- melting point: 112 to 113 °C
- Ki (human 5HT1A receptors): 0.0825 µM

SMILES: Cc1ccc2c3c(ccc2n1)OC[C@H](CN1CCN(c2ccc(C)c(C)c2)CC1)O3 [Example 11, (2S)-2-{[4-(3,4-dimethylphenyl)piperazin-1-yl]methyl}-8-methyl-2,3-dihydro[1,4]dioxino[2,3-f]quinoline]
- 5HT1A Function Imax [1]: 84%
- IC50 [1]: 0.345 µM
- Ki (serotonin transporter): 0.0855 µM
- melting point: 118 to 120 °C
- Ki (human 5HT1A receptors): 0.0182 µM

SMILES: Cc1ccc2c3c(ccc2n1)OC[C@H](CN1CCN(c2ccc4ccccc4n2)C[C@@H]1C)O3 [Example 19, (2S)-8-methyl-2-{[(2S)-2-methyl-4-quinolin-2-ylpiperazin-1-yl]methyl}-2,3-dihydro[1,4]dioxino[2,3-f]quinoline]
- 5HT1A Function Imax [1]: 90%
- IC50 [1]: 3 µM
- Ki (serotonin transporter): 0.123 µM
- melting point: 141 to 144 °C
- Ki (human 5HT1A receptors): 0.167 µM

SMILES: Cc1ccc2c3c(ccc2n1)OC[C@H](CN1CCN(c2ccc4ccccc4n2)C[C@H]1C)O3 [Example 21, (2S)-8-methyl-2-{[(2R)-2-methyl-4-quinolin-2-ylpiperazin-1-yl]methyl}-2,3-dihydro[1,4]dioxino[2,3-f]quinoline]
- 5HT1A Function Imax [1]: 83.5%
- IC50 [1]: 0.867 µM
- Ki (serotonin transporter): 0.0328 µM
- melting point: 78 to 82 °C
- Ki (human 5HT1A receptors): 0.00553 µM

SMILES: Cc1ccc2c3c(ccc2n1)OC[C@H](CN1CCN(c2ccc4cc(Br)ccc4n2)CC1)O3 [Example 27, (2S)-2-{[4-(6-Bromoquinolin-2-yl)piperazin-1-yl]methyl}-8-methyl-2,3-dihydro[1,4]dioxino[2,3-f]quinoline]
- 5HT1A Function Imax [1]: 82%
- IC50 [1]: 2.41 µM
- Ki (serotonin transporter): 0.101 µM
- melting point: 153 to 154 °C
- Ki (human 5HT1A receptors): 0.0171 µM
